The values below come from doi:10.1101/2019.12.11.872838v1 (biorxiv, 2019).

This assay concerns the target KDM1A (Homo sapiens, UniProt O60341). The assay is described as follows: ALPHA screen demethylation assay. It counts as biochemical.

As a reminder, the IC50 is the point on the concentration scale where inhibition reaches its midpoint. Lower therefore signals inhibition by little substance.

Molecule `CO[C@H]1/C=C\C=C(/C)C(=O)NC2=CC(=O)C(NCCN(C)C)=C(C[C@@H](C)C[C@H](OC)[C@H](O)[C@@H](C)/C=C(\C)[C@@H]1OC(N)=O)C2=O` [17-DMAG] gave a half-maximal inhibitory concentration (IC50) of over 10 µM.
